# Results as given in PubChem BioAssay AID192 (DTP/NCI, 2004).
# Where “and” joins values, the source holds several entries; their conditions need not be identical. Equal values may be shown once. Toxic doses and inconclusive results are not listed.
# Tested on: BDF1 mice, B16 melanoma ip, median survival T/C
# Assay: NCI In Vivo Anticancer Drug Screen. Data for tumor model B16 Melanoma (intraperitoneal) in B6D2F1 (BDF1) mice
# Conditions: endpoint: median survival time, higher = longer survival
# In short: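 Each result divides a survival or tumor-size measurement in the compound-treated group by the same measurement in the vehicle group.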
# [1] = dose: 12.5 mg/kg/injection, schedule: Q01DX009 (ip), vehicle: saline with Tween-80
# [2] = dose: 25.0 mg/kg/injection, schedule: Q01DX009 (ip), vehicle: saline with Tween-80
# [3] = dose: 50.0 mg/kg/injection, schedule: Q01DX009 (ip), vehicle: saline with Tween-80
# [4] = dose: 100.0 mg/kg/injection, schedule: Q01DX009 (ip), vehicle: saline with Tween-80
# [5] = dose: 200.0 mg/kg/injection, schedule: Q01DX009 (ip), vehicle: saline with Tween-80
# [6] = dose: 25.0 mg/kg/injection, schedule: Q01DX009 (ip), vehicle: Klucel (hydroxypropylcellulose) (HPC)
# [7] = dose: 50.0 mg/kg/injection, schedule: Q01DX009 (ip), vehicle: Klucel (hydroxypropylcellulose) (HPC)
# [8] = dose: 2.5 mg/kg/injection, schedule: Q01DX009 (ip), vehicle: saline
# [9] = dose: 5.0 mg/kg/injection, schedule: Q01DX009 (ip), vehicle: saline
smiles,measurement,setting,value
CN(C)c1nc(N(C)C)nc(N(C)C)n1,T/C,"dose: 10.0 mg/kg/injection, schedule: Q01DX009 (ip), vehicle: Klucel (hydroxypropylcellulose) (HPC)",108 % of control
same,T/C,[1],99 % of control and 106 % of control and 107 % of control
same,T/C,"dose: 20.0 mg/kg/injection, schedule: Q01DX009 (ip), vehicle: Klucel (hydroxypropylcellulose) (HPC)",94 % of control
same,T/C,"dose: 20.0 mg/kg/injection, schedule: Q01DX009 (ip), vehicle: saline with Tween-80",88 % of control and 99 % of control
same,T/C,"dose: 20.0 mg/kg/injection, schedule: Q02DX009 (ip), vehicle: saline with Tween-80",103 % of control and 107 % of control
same,T/C,"dose: 25.0 mg/kg/injection, schedule: Q02DX009 (ip), vehicle: Klucel (hydroxypropylcellulose) (HPC)",97 % of control
same,T/C,"dose: 40.0 mg/kg/injection, schedule: Q01DX009 (ip), vehicle: Klucel (hydroxypropylcellulose) (HPC)",100 % of control
same,T/C,"dose: 40.0 mg/kg/injection, schedule: Q01DX009 (ip), vehicle: saline with Tween-80",93 % of control and 97 % of control
same,T/C,"dose: 40.0 mg/kg/injection, schedule: Q02DX009 (ip), vehicle: saline with Tween-80",103 % of control and 112 % of control
same,T/C,"dose: 50.0 mg/kg/injection, schedule: Q02DX009 (ip), vehicle: Klucel (hydroxypropylcellulose) (HPC)",96 % of control
same,T/C,"dose: 80.0 mg/kg/injection, schedule: Q01DX009 (ip), vehicle: Klucel (hydroxypropylcellulose) (HPC)",100 % of control
same,T/C,"dose: 80.0 mg/kg/injection, schedule: Q01DX009 (ip), vehicle: saline with Tween-80",100 % of control and 102 % of control
same,T/C,"dose: 80.0 mg/kg/injection, schedule: Q02DX009 (ip), vehicle: saline with Tween-80",104 % of control and 109 % of control
same,T/C,"dose: 100.0 mg/kg/injection, schedule: Q02DX009 (ip), vehicle: Klucel (hydroxypropylcellulose) (HPC)",101 % of control
same,T/C,"dose: 160.0 mg/kg/injection, schedule: Q01DX009 (ip), vehicle: Klucel (hydroxypropylcellulose) (HPC)",91 % of control
same,T/C,"dose: 160.0 mg/kg/injection, schedule: Q01DX009 (ip), vehicle: saline with Tween-80",111 % of control
same,T/C,"dose: 160.0 mg/kg/injection, schedule: Q02DX009 (ip), vehicle: saline with Tween-80",107 % of control and 115 % of control
same,T/C,"dose: 200.0 mg/kg/injection, schedule: Q02DX009 (ip), vehicle: Klucel (hydroxypropylcellulose) (HPC)",124 % of control
NC(CC(=O)O)CC(=O)O,T/C,"dose: 25.0 mg/kg/injection, schedule: Q01DX009 (ip), vehicle: suspension in saline",91 % of control
same,T/C,"dose: 50.0 mg/kg/injection, schedule: Q01DX009 (ip), vehicle: suspension in saline",92 % of control
same,T/C,"dose: 100.0 mg/kg/injection, schedule: Q01DX009 (ip), vehicle: suspension in saline",103 % of control
same,T/C,"dose: 200.0 mg/kg/injection, schedule: Q01DX009 (ip), vehicle: suspension in saline",100 % of control
same,T/C,"dose: 400.0 mg/kg/injection, schedule: Q01DX009 (ip), vehicle: suspension in saline",90 % of control
O=S(=O)(c1ccccc1)N1CN2CCN(C2)C1,T/C,[1],89 % of control
same,T/C,[2],98 % of control
same,T/C,[3],99 % of control
same,T/C,[4],100 % of control
same,T/C,[5],103 % of control
C=CCN(CC=C)CCN1CCN(CCCN2c3ccccc3Sc3ccc(C(F)(F)F)cc32)CC1,T/C,"dose: 3.12 mg/kg/injection, schedule: Q01DX009 (ip), vehicle: saline",100 % of control
same,T/C,"dose: 6.25 mg/kg/injection, schedule: Q01DX009 (ip), vehicle: saline",107 % of control
same,T/C,"dose: 12.5 mg/kg/injection, schedule: Q01DX009 (ip), vehicle: saline",97 % of control
O=C1c2ccccc2C(=O)N1C[P+](c1ccccc1)(c1ccccc1)c1ccccc1,T/C,"dose: 6.25 mg/kg/injection, schedule: Q01DX009 (ip), vehicle: water",117 % of control
same,T/C,"dose: 12.5 mg/kg/injection, schedule: Q01DX009 (ip), vehicle: water",112 % of control
same,T/C,"dose: 25.0 mg/kg/injection, schedule: Q01DX009 (ip), vehicle: water",123 % of control
c1ccc(CCN2CCC(CCc3c[nH]c4ccccc34)CC2)cc1,T/C,[1],90 % of control
same,T/C,[2],103 % of control
same,T/C,[3],94 % of control
O=C1C=C(SCCO)C(=O)c2ccccc21,T/C,"dose: 13.0 micrograms/kg/injection, schedule: Q01DX009 (ip), vehicle: saline with Tween-80",100 % of control
same,T/C,"dose: 18.7 micrograms/kg/injection, schedule: Q01DX009 (ip), vehicle: saline with Tween-80",94 % of control
same,T/C,"dose: 20.0 micrograms/kg/injection, schedule: Q01DX009 (ip), vehicle: saline with Tween-80",92 % of control
same,T/C,"dose: 30.0 micrograms/kg/injection, schedule: Q01DX009 (ip), vehicle: saline with Tween-80",95 % of control
same,T/C,"dose: 45.0 micrograms/kg/injection, schedule: Q01DX009 (ip), vehicle: saline with Tween-80",117 % of control
same,T/C,"dose: 90.0 micrograms/kg/injection, schedule: Q01DX009 (ip), vehicle: saline with Tween-80",107 % of control
CC(CP(=O)(c1ccccc1)c1ccccc1)C(=O)O (configuration not stated),T/C,[4],95 % of control
same,T/C,[5],97 % of control
same,T/C,"dose: 400.0 mg/kg/injection, schedule: Q01DX009 (ip), vehicle: saline with Tween-80",90 % of control
CN1CCC=C(CN(c2ccccc2)c2ccccc2)C1,T/C,"dose: 25.0 mg/kg/injection, schedule: Q01DX009 (ip), vehicle: saline",92 % of control
same,T/C,"dose: 50.0 mg/kg/injection, schedule: Q01DX009 (ip), vehicle: saline",89 % of control
same,T/C,"dose: 100.0 mg/kg/injection, schedule: Q01DX009 (ip), vehicle: saline",92 % of control
Cc1ccc(NC(=O)Nc2cccc3ccccc23)cc1Cl,T/C,"dose: 12.5 mg/kg/injection, schedule: Q01DX009 (ip), vehicle: Klucel (hydroxypropylcellulose) (HPC)",94 % of control
same,T/C,[6],88 % of control
C/C(=N\[N+](C)(C)C)c1ccc2ccccc2c1,T/C,[6],93 % of control
same,T/C,[7],100 % of control
O=C1C(N2CCCCC2)=C(N2CC2)C(=O)C(N2CCCCC2)=C1N1CC1,T/C,[8],94 % of control and 97 % of control
same,T/C,[9],121 % of control
Cc1ccc(S(=O)(=O)N2CCCC(=O)c3ccc(Cl)cc32)cc1,T/C,"dose: 100.0 mg/kg/injection, schedule: Q04DX003 (ip), vehicle: Klucel (hydroxypropylcellulose) (HPC)",103 % of control
same,T/C,"dose: 200.0 mg/kg/injection, schedule: Q04DX003 (ip), vehicle: Klucel (hydroxypropylcellulose) (HPC)",99 % of control
same,T/C,"dose: 400.0 mg/kg/injection, schedule: Q04DX003 (ip), vehicle: Klucel (hydroxypropylcellulose) (HPC)",99 % of control
COc1ccc2c(oc(=O)c3c(Cl)nc(C)c(C)c32)c1OC,T/C,[6],105 % of control
same,T/C,[7],98 % of control
same,T/C,"dose: 100.0 mg/kg/injection, schedule: Q01DX009 (ip), vehicle: Klucel (hydroxypropylcellulose) (HPC)",97 % of control
same,T/C,"dose: 200.0 mg/kg/injection, schedule: Q01DX009 (ip), vehicle: Klucel (hydroxypropylcellulose) (HPC)",94 % of control
CC1=CC(=NN=c2cc(C)n([O-])c(C)c2)C=C(C)[N+]1=O,T/C,[1],111 % of control
same,T/C,[2],115 % of control
same,T/C,[3],118 % of control
Cc1ccc2c(C)c3c(ccc4ccccc43)c[n+]2c1,T/C,"dose: 1.25 mg/kg/injection, schedule: Q01DX009 (ip), vehicle: saline",100 % of control
same,T/C,"dose: 2.5 mg/kg/injection, schedule: Q01DX009 (ip), vehicle: saline with Tween-80",95 % of control
same,T/C,[8],100 % of control
same,T/C,"dose: 5.0 mg/kg/injection, schedule: Q01DX009 (ip), vehicle: saline with Tween-80",95 % of control
same,T/C,[9],100 % of control
same,T/C,"dose: 10.0 mg/kg/injection, schedule: Q01DX009 (ip), vehicle: saline",105 % of control
C=C1C(=O)OC2/C=C(\CO)C(OC(C)=O)CC(O)/C(C)=C/C(OC(=O)C(C)CC)C12 (configuration not stated),T/C,"dose: 1.56 mg/kg/injection, schedule: Q01DX009 (ip), vehicle: Klucel (hydroxypropylcellulose) (HPC)",108 % of control
same,T/C,"dose: 3.13 mg/kg/injection, schedule: Q01DX009 (ip), vehicle: Klucel (hydroxypropylcellulose) (HPC)",101 % of control
same,T/C,"dose: 6.25 mg/kg/injection, schedule: Q01DX009 (ip), vehicle: Klucel (hydroxypropylcellulose) (HPC)",109 % of control
CCCCNC(C)[C@]1(O)Cc2c(O)c3c(c(O)c2[C@@H](OC2CC(N)C(O)C(C)O2)C1)C(=O)c1c(OC)cccc1C3=O (some centres not stated),T/C,"dose: 4.7 mg/kg/injection, schedule: Q01DX001 (ip), vehicle: water",185 % of control and 198 % of control
same,T/C,"dose: 9.4 mg/kg/injection, schedule: Q01DX001 (ip), vehicle: water",185 % of control and 215 % of control and 270 % of control
same,T/C,"dose: 18.8 mg/kg/injection, schedule: Q01DX001 (ip), vehicle: water",197 % of control and 222 % of control and 263 % of control
same,T/C,"dose: 37.5 mg/kg/injection, schedule: Q01DX001 (ip), vehicle: water",106 % of control
C/C=C(\C)C(=O)OC1CC[N+]2([O-])CCC(COC(=O)/C(=C/C)CO)C12 (configuration not stated),T/C,"dose: 18.8 mg/kg/injection, schedule: Q01DX009 (ip), vehicle: saline",102 % of control
same,T/C,"dose: 37.5 mg/kg/injection, schedule: Q01DX009 (ip), vehicle: saline",109 % of control
same,T/C,"dose: 75.0 mg/kg/injection, schedule: Q01DX009 (ip), vehicle: saline",107 % of control
same,T/C,"dose: 150.0 mg/kg/injection, schedule: Q01DX009 (ip), vehicle: saline",107 % of control
